Usually IC50 stands for the concentration that gives 50% inhibition.

Converted amounts (≈) assume the structure as drawn. Like-named read-outs stand apart in the source and are kept apart here.

Seven molecules from patent US6030951A, “Chrysomycin derivative compounds and use as antitumor agents” (Mercian Corporation, priority 1996, dated 2000) can be followed below.

For series [1], the system named is HT29 (colic cancer). Put plainly: Inhibition of growth of human cancer cells (WST-1, 3 days). It is filed as cell-based. The following applies: HT-29, 72 h, read-out: IC50 value. Here is the method:
(§1) Using various human cancer cells, the concentrations of test compounds which inhibits the growth of cancer cells by 50% were determined. Specifically, each of K562 (leukemic cell), HT29 (colic cancer), HT1080 (reticulogranuloma cell), MCF7 (mammary cancer cell), PC6 (pulmonary cancer cell) and MKN28 (gastric cancer cell) was added to a 96-well microtiter/plate at a density of 2-5×10^3 cells per well, and RPM11640 medium (phenol red-free) containing 10% FBS, together with a test compound, was added thereto. Then, this plate was incubated at 37° C. for 3 days in an atmosphere of air containing 5% CO2. Thereafter, 10 μl of WST-1 reagent [0.065% 2-(4-iodophenyl)-3-(4-nitrophenyl)-5-(2,4-disulfonyl)-2H-tetrazolium monosodium salt, 0.007% 1-methoxy-5-methylphenazium methylsulfate] was added to each well, and the plate was further incubated for 3 hours. Then, the absorbance of each well at 450 nm (with a reference wavelength of 650 nm) was measured with a plate reader.
(In general: Tetrazolium dyes change colour on reduction, which living cells bring about.)

The test system of series [2] is PC6 (pulmonary cancer cell). The description is as above. Format: cell-based. The following applies: 72 h, read-out: IC50 value. Here is the method:
as §1

The subject of series [3] is MKN28 (gastric cancer cell). Described as above. Format: cell-based. The conditions noted are these: MKN-28, 72 h, read-out: IC50 value. How it is done: as §1
The test system of series [4] is K562 (leukemic cell). The description is as above. Format: cell-based. The following applies: read-out: IC50 value. How it is done:
as §1

Series [5] deals with MCF7 (mammary cancer cell). Described as above. Format: cell-based. The conditions noted are these: read-out: IC50 value. Here is the method: as §1
For series [6], the system named is solid cancer cells. Put plainly: Growth-inhibiting activity against cultured solid cancer cells. Format: cell-based, human. The conditions noted are these: for effectiveness against cells derived from tumors, particularly solid cancers: colic, mammary, pulmonary and gastric cancer, mammals, in particular human. Here is the method:
as §1

Series [7] in a line: Solubility.
The subject of series [8] is tumor cells. Put plainly: Growth-inhibiting activity against various types of tumor cells. Format: cell-based, human. The following applies: as compared with chrysomycins. How it is done: as §1
The mark [9] stands for this setting: organic solvents such as chloroform, acetone and methanol.

With `C=Cc1cc(OC)c2c(c1)c(=O)oc1c2cc(OC)c2c(O)ccc(C3OC(C)C(O)C(C)(O)C3O)c21` (stereo not drawn) [Chrysomycin A, reference compound], the IC50 in series [1] stood at 0.84 µg/mL (≈ 1.65 µM); in series [2], 0.335 µg/mL (≈ 0.659 µM); in series [3], 0.144 µg/mL (≈ 0.283 µM); in series [4] (K562, 72 h), 0.106 µg/mL (≈ 0.208 µM); in series [5] (MCF7, 72 h) it was 0.53 µg/mL (≈ 1.04 µM).

On to `COc1cc2c(oc(=O)c3cc(C)cc(OC)c32)c2c(C3OC(C)C(O)C(C)(O)C3O)ccc(O)c12` (stereo not drawn) [Chrysomycin B, reference compound], for which the IC50 was 2.63 µg/mL (≈ 5.3 µM) in series [1] (HT29, 3 days, 37° C.); 3.5 µg/mL (≈ 7.05 µM) in series [2] (PC6, 3 days, 37° C.); 2.65 µg/mL (≈ 5.34 µM) in series [3] (MKN28, 3 days, 37° C.); 1.76 µg/mL (≈ 3.54 µM) in series [4] (72 h, K562, 3 days, 37° C.); 2.58 µg/mL (≈ 5.2 µM) in series [5] (72 h, MCF7, 3 days, 37° C.).

As for `COc1cc2c(oc(=O)c3cc(C)cc(OC)c32)c2c(C3OC(C)C(O)(C(C)=O)C3O)ccc(O)c12` (stereo not drawn) [Mer-1020dA], the IC50 was found to be 0.075 µg/mL (≈ 0.152 µM) in series [1] (HT29, 3 days, 37° C.); 0.064 µg/mL (≈ 0.129 µM) in series [2] (PC6, 3 days, 37° C.); 0.017 µg/mL (≈ 0.0344 µM) in series [3] (MKN28, 3 days, 37° C.); 0.36 µg/mL (≈ 0.728 µM) in series [4] (72 h, K562, 3 days, 37° C.); 0.032 µg/mL (≈ 0.0647 µM) in series [5] (72 h, MCF7, 3 days, 37° C.). Also, the “growth-inhibiting activity against all types of cultured solid cancers used for testing” value in series [6] (all types tested) is “significantly excellent growth-inhibiting activity”. Further, the “effectiveness against cells derived from tumors, particularly solid cancers” value (“effectiveness against cells derived” below) in series [6] is “remarkable effectiveness”. In addition, the Solubility result is recorded as “Soluble” in series [7] (setting [9]) and “insoluble” in series [7] (water).

With `COc1cc2c(oc(=O)c3cc(C)cc(OC)c32)c2c(C3OC(C)C(=O)C(C)(O)C3O)ccc(O)c12` (stereo not drawn) [Mer-1020dB], the IC50 is 0.35 µg/mL (≈ 0.708 µM) in series [1] (HT29, 3 days, 37° C.); 0.11 µg/mL (≈ 0.222 µM) in series [2] (PC6, 3 days, 37° C.); 0.35 µg/mL (≈ 0.708 µM) in series [3] (MKN28, 3 days, 37° C.); 0.28 µg/mL (≈ 0.566 µM) in series [4] (72 h, K562, 3 days, 37° C.); 0.35 µg/mL (≈ 0.708 µM) in series [5] (72 h, MCF7, 3 days, 37° C.). Further, in series [6], the “effectiveness against cells derived” value was “remarkable effectiveness”. Further, the Solubility entry was “Soluble” in series [7] (setting [9]) and “insoluble” in series [7] (water).

In the case of `C=Cc1cc(OC)c2c(c1)c(=O)oc1c2cc(OC)c2c(O)ccc(C3OC(C)C(=O)C(C)(O)C3O)c21` (stereo not drawn) [Mer-1020dC], the IC50 in series [1] (HT29, 3 days, 37° C.) turned out to be 0.1 µg/mL (≈ 0.197 µM); in series [2] (PC6, 3 days, 37° C.), 0.03 µg/mL (≈ 0.0592 µM); in series [3] (MKN28, 3 days, 37° C.), 0.32 µg/mL (≈ 0.632 µM); in series [4] (72 h, K562, 3 days, 37° C.) it was 0.11 µg/mL (≈ 0.217 µM); in series [5] (72 h, MCF7, 3 days, 37° C.) it was 0.42 µg/mL (≈ 0.829 µM). In addition, in series [6], the “effectiveness against cells derived” value was “remarkable effectiveness”. Moreover, the results for the Solubility result in series [7] (setting [9]) and in series [7] (water) were “Soluble” and “insoluble”, respectively.

On to `C=Cc1cc(OC)c2c(c1)c(=O)oc1c2cc(OC)c2c(O)ccc(C3OC(C)C(O)(C(C)=O)C3O)c21` (stereo not drawn) [Mer-1020dD], for which the IC50 in series [1] (HT29, 3 days, 37° C.) is 0.15 µg/mL (≈ 0.296 µM); in series [2] (PC6, 3 days, 37° C.), 2.5 µg/mL (≈ 4.94 µM); in series [3] (MKN28, 3 days, 37° C.) it was 1 µg/mL (≈ 1.97 µM); in series [4] (72 h, K562, 3 days, 37° C.), 0.21 µg/mL (≈ 0.415 µM); in series [5] (72 h, MCF7, 3 days, 37° C.), 0.6 µg/mL (≈ 1.18 µM). Besides, in series [6], the “effectiveness against cells derived” value is on record as “remarkable effectiveness”. For the same molecule, the Solubility entry was “Soluble” in series [7] (setting [9]) and “insoluble” in series [7] (water).

Take `COc1cc2c(oc(=O)c3cc(C)cc(OC)c32)c2cccc(O)c12` [Mer-1020dE]: the IC50 in series [1] (HT29, 3 days, 37° C.) turned out to be 19 µg/mL (≈ 56.5 µM); in series [2] (PC6, 3 days, 37° C.), 34 µg/mL (≈ 101 µM); in series [3] (MKN28, 3 days, 37° C.), 11 µg/mL (≈ 32.7 µM); in series [4] (72 h, K562, 3 days, 37° C.), 8.1 µg/mL (≈ 24.1 µM); in series [5] (72 h, MCF7, 3 days, 37° C.), 17 µg/mL (≈ 50.5 µM). For the same molecule, the “growth-inhibiting activity against various types of tumor cells” value in series [8] is listed as “lower as compared with chrysomycins”. The Solubility result in series [7] (setting [9]) is “Soluble”; in series [7] (water) it was “insoluble”.
